Results on three molecules are retold here after patent US20210403975A1, “PHENOTYPIC ANTIMICROBIAL SUSCEPTIBILITY PROFILING OF UNIDENTIFIED PATHOGENS DIRECTLY FROM PATIENT SAMPLES” (GeneFluidics, Inc., priority 2020, published 2021).

Like-named read-outs stand apart in the source and are kept apart here.

Assay [1] relates to P. aeruginosa ATCC 27853. Put plainly: MIC of the strain used in the gentamicin/meropenem checkerboard. The format is cell-based. The settings on record: P. aeruginosa ATCC 27853, FIG. 6A legend. As to the method: FIG. 6A-C presents a (A) P. aeruginosa ATCC 27853 5×5 checkerboard with gentamicin (MIC: 1 μg/mL) and meropenem (MIC: 0.5 μg/mL). Assay results after 3.5 hours of incubation at 37° C. (B) A 3×3 checkerboard of gentamicin and meropenem on the same P. aeruginosa strain. (C) An exemplary embodiment of a 96-well checkerboard plate for 66 combinations. ABX are gray-scaled with different intensities to represent different concentrations.
The disclosure provides for the establishment and validation of an automated protocol to assess combinations of two or more antimicrobials to assess antimicrobial susceptibility directly from pediatric patients' specimens during an emergency or unprecedented pandemic. The direct-from-specimen AST protocols discussed above are expanded into a 96-well plate-based checkerboard test to assess 66 preselected combinations of 25 antibiotics as illustrated in FIG. 6C.

Assay [2] has as its system CDC69 (resistant strain). Put plainly: Direct-from-specimen AST, GC ratio trend over increasing meropenem concentrations. The format is cell-based. The following applies: CDC 69; 4-hour antibiotic exposure; meropenem 1 to 64 μg/mL; agrees with CDC AR Bank MIC. The source says: (§1) The direct-from-specimen AST disclosed herein will start with various types of specimens with an unknown concentration of pathogens, from 0 to >10^8 CFU/mL. In order to determine the minimum assay time needed for quantification of RNA transcription at different levels of pathogen concentration, a correlation between the limit of detection (LOD) of the current molecular analysis platform (see FIG. 3 steps 1-17) with the assay turnaround time (TAT) was established (see FIG. 4). […] Target pathogen enrichment and matrix component removal can be carried out by the built-in centrifugal module to achieve lower target LODs with TAT of 42 minutes to 110 minutes. For low-abundance pathogens and early infection diagnostics, additional viability culture steps with TAT of 240 minutes to 330 minutes can be included to achieve an LOD of <10 CFU/mL. The direct-from-specimen AST method disclosed herein will encompass these assay parameters. […] Semi-automatic AST tests directly from whole blood and urine contrived samples were evaluated in FIG. 5 A-C. […]
(§2) Direct-from-specimen AST Analytical Validation Protocol: (1) The user loads the specimen collection tube into the system, which then (2) scans the bar code to determine specimen type. […] The system incubates enzyme, then performs electrochemical reading and (10) AST reporting.

Assay [3] has as its system CDC77 (susceptible strain). The assay is described as above. The assay is classed as cell-based. The following applies: 4-hour antibiotic exposure, meropenem 1 to 64 μg/mL, agrees with CDC AR Bank MIC.
Text: as §1, §2

The test system of assay [4] is CDC KP 522. Put plainly: Preliminary accelerated colistin AST, 2 hours drug-bug exposure. The assay is classed as cell-based, Klebsiella pneumoniae. The following applies: colistin 0.25-8 μg/mL, 2 hours exposure. From the text:
(§3) Direct-from-specimen of HR approach. HR is a poorly characterized phenomenon and the lack of consensus-based standards further complicates the study of antibiotic resistance. In addition, its clinical relevance is uncertain due to a lack of a standardized procedure to be implemented into the current workflow in clinical microbiology laboratories. […] FIG. 8C is the HR testing on the system.

Assay [5] deals with KP 525. Described as above. The format is cell-based, Klebsiella pneumoniae. The following applies: colistin 0.25-8 μg/mL, 2 hours exposure.
Text: as §3

For assay [6], the system named is CDC Enterobacter cloacae (EbC) 545. Described as above. The following applies: 2 hours CST exposure in stripwell, FIG. 8A. The format is cell-based.
Text: as §3

For assay [7], the system named is CDC Proteus mirabilis (PM) 29. Described as above. The format is cell-based. The settings on record: CDC PM 29; 2 hours exposure.
Text: as §3

Assay [8] concerns Klebsiella pneumoniae (KP) 138. Described as above. The following applies: 2 hours CST exposure in stripwell, FIG. 8A. The format is cell-based.
Text: as §3

Assay [9] has as its system CDC Enterobacter cloacae (EbC) 545. The settings on record: CDC EbC 545; cited from earlier work.
For assay [10], the system named is Klebsiella pneumoniae (KP) 138. The following applies: cited from earlier work.
The subject of assay [11] is CDC KP 522. The following applies: cited from earlier work.
Assay [12] relates to KP 525. The following applies: cited from earlier work.
For assay [13], the system named is CDC Proteus mirabilis (PM) 29. The settings on record: CDC PM 29; cited from earlier work.
Assay [14] deals with CDC 349 E. coli. The following applies: cited from earlier work.

For orientation: MIC means the lowest concentration found to suppress growth.

Consider `C[C@@H](O)[C@H]1C(=O)N2C(C(=O)O)=C(S[C@@H]3CN[C@H](C(=O)N(C)C)C3)[C@H](C)[C@H]12` [meropenem], for which the MIC in [1] (Pseudomonas aeruginosa, ATCC27853, read-out: MIC) was 0.5 mg/L. Further, the “MIC reported from trend of GC ratio” value in assay [2] was 8 mg/L; in assay [3] it was less than 1 mg/L.
As to colistin, the “growth response to colistin exposure” value in assay [4] was “not affected”; in [5] it was “not affected”; in assay [6], “clear inhibited growth”; in assay [8], “clear inhibited growth”. In addition, the “susceptibility to colistin relative to other strains tested” value in [7] is recorded as “least susceptible”. For the same molecule, the MIC was no more than 0.25 mg/L in [9]; 2 mg/L in assay [10]; greater than 8 mg/L in [11]; greater than 8 mg/L in [12]; 2 to 4 mg/L in [14]. Besides, the “MIC (listed)” value in [13] was greater than 4 mg/L.
In the case of gentamicin, the MIC in assay [1] worked out at 1 mg/L.
